# What was measured:
# Chlorella sp. ATCC 7516 = experiment: Algal efficacy test of dry paint film (modified ASTM 5589, 6-well plates); format: cell-based; settings: 3 weeks; for Total conc: total biocide concentration in paint taken as minimum inhibitory concentration, pass level ≧75% inhibition, for zoxamide the maximum concentration tested, pass not reached
# Method: (§1) Slurries containing 33% antimicrobial active ingredients (Zoxamide and ZnPT) were post added to a white, acrylic/silicone based outdoor paint free of biocides to give a total active ingredient concentration of 10000 and 1000 ppm respectively. These paints were then diluted with an antimicrobial free acrylic/silicone based paint and mixed to prepare targeted concentrations of antimicrobial compounds for the testing. The total biocides concentrations tested were 125, 250, 500, 1000, 2000 and 5000 ppm. After biocides addition or dilution, the paints were mixed 90 seconds with the horse power shaker (AXEL 75M3372/Agitateur SO-10MI) until uniformity was achieved. Paints containing different antimicrobial compounds at the same levels were mixed together in order to obtain the desired ratio of antimicrobial compounds. After one day, the paints were applied to Schleicher & Schuell filter paper at 280 μm wft and dried for 3 days at room temperature avoiding direct exposure to sunlight. Square discs (1.6 cm×1.6 cm) were cut out from each panel and were used as the substrate for algal efficacy tests. This sample size allowed for an agar border when the sample disc was placed into the well of the test plate.
# (§2) Algal efficacy was tested according to modified ASTM 5589 which is a standard accelerated test method for determining resistance of various coatings (including paints) to algal defacement. To accommodate for high-throughput screening, this method was scaled down from petri dishes to 6-well plates. Bold Modified Basal Freshwater Nutrient Solution was used as growth medium. A single coated filter paper coupon was placed with a pair of sterile forceps at the center of the agar plug (on top) with the painted surface facing upwards. Algal inoculums were prepared by mixing equal concentrations (1×10^6 cfu/ml) and equal volumes of exponentially growing algae cultures.
# (§3) Each well that contains a tested coupon was inoculated with 1750 μl of algal suspensions (1×10^6 cfu/ml) making sure that the whole surface (paint film as well as the agar surrounding it) was evenly covered. The plates were incubated at room temp (21° C.-25° C.) with cyclic exposure to light and dark phases, for a period of three weeks.
# (§4) At the end of the three week incubation period, the samples were scored for percent inhibition regarding visible algal growth compared to the blank sample (0% inhibition).
# (§5) The SI is calculated based on F. C.
# (§6) SI value of <1 in the formula indicates a synergism of the blended biocides exists.
# (§7) The minimal targeted inhibition was set at 75%, meaning a coupon with at least 75% algal growth inhibition was considered as a pass.
# [1] = system: Stichococcus bacillaris SAG 379-1a CCAP 379/1a; experiment: as above; format: cell-based; settings: 3 weeks; for Total conc: total biocide concentration in paint taken as minimum inhibitory concentration, pass level ≧75% inhibition, for zoxamide the maximum concentration tested, pass not reached
# Method: as §1, §2, §3, §4, §5, §6, §7
# [2] = total conc 500 ppm in paint, visible algal growth vs blank
Compound,"inhibition at 5000 ppm (Chlorella sp. ATCC 7516; 504 h, total conc 5000 ppm in paint, visible algal growth vs blank) [%]",Total conc (Chlorella sp. ATCC 7516) [ppm],"inhibition at 5000 ppm ([1]; Stichococcus bacillaris, 504 h, total conc 5000 ppm in paint, visible algal growth vs blank) [%]",Total conc [1] [ppm],% inhibition (Chlorella sp. ATCC 7516; [2]) [%],"% inhibition [1, 2] [%]"
"CCC(C)(NC(=O)c1cc(Cl)c(C)c(Cl)c1)C(=O)CCl (centres unmarked) [Zoxamide, 3,5-Dichloro-N-(3-chloro-1-ethyl-1-methyl-2-oxopropyl)-4-methylbenzamide]",60,5000,45,5000,–,–
"[O-][n+]1ccccc1[S][Zn][S]c1cccc[n+]1[O-] [ZnPT, bis(2-pyridylthio)zinc 1,1′-dioxide]",–,500,–,500,90,85
